Source: patent US8501734B2, “Medical intervention in haematological cancers” (Oncotyrol-Center for Personalized Cancer Medicine GmbH …, priority 2008, dated 2013)
pIC50: −log10 of the molar value.

Legend:
OPM2 cells = assay: Annexin V/PI apoptosis assay (FACS), OPM2 cells; format: cell-based; set-up: apoptosis induction: unit not given here; details: OPM2 cells
Protocol: (§1) After treatment adherent cells were trypsinized (as described before), and resuspended in corresponding full medium. Suspension cells or trypsinized adherent cells, supernatant and washing solution (1×PBS from washing before trypsinization) were pooled and then spun down (300 g for 3 min) washed in 2 ml and resuspended in 1000 of annexin V binding buffer and mixed with 2 μg/ml annexin V-Allophycocyanin (APC) (BD-Pharmingen, San Diego, Calif., USA) and 50 ng/ml of propidium iodide (PI; Sigma Aldrich). At least 10.000 cells were measured per sample using a Becton Dickinson FACSCalibur flow Cytometer (San Jose, Calif., USA). Percentage of Annexin V negative and PI negative cells were depicted in the figures. For the analysis of the pro-apoptotic activity of Imiquimod® in primary MM cells and non-malignant BMMCs, 5×10^5 cells BMMCs cells were treated with or without 40 μg/ml Imiquimod® for the indicated time periods. Cells were then harvested and washed twice with PBS. Detection of apoptotic cells was performed using the annexin V/PI assay according to manufacturers' instruction. Briefly, BMMCs were stained with a mixture of annexin V/FITC (Alexis Coorp., Laeufelfingen, Switzerland), propidium iodide (Sigma), anti-CD38-PE and anti-CD45-PC5 for 15 min at room temperature and immediately analyzed by flow cytometry. The percentages of viable cells (i.e. cells negative for annexin V/FITC and PI) within the MM (CD38^posCD45^low/absent) and non-MM fraction (CD38^neg/CD45^pos) were determined by flow cytometry.
Cells were cultured as described before and, treated with 40 μg/ml Imiquimod® or Gardiquimod® for 24 h, and apoptosis was assayed by AnnexinV/PI staining and FACS analysis.
(§2) Adherent cells were grown in 24-well plates to confluence and treated with 40 μg/ml Imiquimod® for 24 h. Cells were then trypsinized, suspended in full medium, stained for AnnexinV/PI and apoptosis was measured as described before. Suspension cells (250.000) were treated with 40 μg/ml Imiquimod® for 24 h, stained for Annexin/PI and apoptosis was measured as described above (Annexin V/Propidium Iodide apoptosis Assay).
(§3) OPM-2 and U266 cells (2.5×10^5 in 500 μl) were treated with either Imiquimod® alone (10 μg/500 μl), various inhibitors/drugs alone or with the combination of Imiquimod® and inhibitors for 24 or 48 h. In the controls the solvent of the drug has been added in appropriate amounts. Cells were then AnnexinV/PI stained and apoptosis measured as described before.

U266 cells = assay: Annexin V/PI apoptosis assay (FACS), U266 cells; format: cell-based; set-up: apoptosis induction: unit not given here; further: key: 0 for no; + for low; ++: + indicates the range of apoptosis induction; +++: + indicates the range of apoptosis induction; ++++ for very strong apoptosis induction
Protocol: as §1, §2, §3

Flk-1 = details: cited from earlier work
[1] = 24 h, Imi 20 μg/ml + drug 10 μM
[2] = 24 h, Imi 20 μg/ml + drug 50 μM
[3] = 48 h, Imi 20 μg/ml + drug 10 μM
[4] = 48 h, Imi 20 μg/ml + drug 50 μM

CC(C)c1cc(/C=C(\C#N)C(=O)NCCCc2ccccc2)cc(C(C)C)c1O [SU1498]
+: apoptosis induction (OPM2 cells; 24 h, Imi 20 μg/ml + drug 1 μM) | apoptosis induction (OPM2 cells; 24 h, drug alone 10 μM) | apoptosis induction (OPM2 cells; 24 h, drug alone 50 μM) | apoptosis induction (OPM2 cells; 48 h, drug alone 10 μM) | apoptosis induction (U266 cells; 24 h, Imi 20 μg/ml + drug 1 μM) | apoptosis induction (U266 cells; 24 h, drug alone 10 μM) | apoptosis induction (U266 cells; 24 h, drug alone 50 μM)
6.15: pIC50 (Flk-1)
++: apoptosis induction (OPM2 cells; [1]) | apoptosis induction (OPM2 cells; [2]) | apoptosis induction (OPM2 cells; 48 h, Imi 20 μg/ml + drug 1 μM) | apoptosis induction (OPM2 cells; 48 h, drug alone 50 μM) | apoptosis induction (U266 cells; [1]) | apoptosis induction (U266 cells; [2]) | apoptosis induction (U266 cells; 48 h, Imi 20 μg/ml + drug 1 μM) | apoptosis induction (U266 cells; [3]) | apoptosis induction (U266 cells; [4]) | apoptosis induction (U266 cells; 48 h, drug alone 10 μM) | apoptosis induction (U266 cells; 48 h, drug alone 50 μM)
0: apoptosis induction (OPM2 cells; 24 h, drug alone 1 μM) | apoptosis induction (OPM2 cells; 48 h, drug alone 1 μM) | apoptosis induction (U266 cells; 24 h, drug alone 1 μM) | apoptosis induction (U266 cells; 48 h, drug alone 1 μM)
+++: apoptosis induction (OPM2 cells; [3]) | apoptosis induction (OPM2 cells; [4])
